Where a name gives a salt, the structure may show the parent alone. Read-outs that look alike come from different tables or passages of the source. Some results are limits rather than exact numbers.

Series [1] concerns the target baculovirus-expressed ALK (Homo sapiens, UniProt Q9UM73). The series can be described thus: ALK kinase inhibition, TRF/ELISA. Particulars: read-out: ALK Potency. In kind it is biochemical. The gist of the method: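 Plates were coated with GST-PLC-γ substrate (10 μg/mL) and the reaction was started with 30 ng/mL ALK, running 15 min at 37° C. Phosphotyrosine was detected by time-resolved fluorescence with Eu-labeled PT66 antibody. IC50s came from variable-slope sigmoidal fits of percent inhibition versus log concentration.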

The target in series [2] is baculovirus-expressed JAK2 kinase (Homo sapiens, UniProt O60674). The series can be described thus: biochemical. Particulars: 0.2 μM ATP; read-out: JAK2 Potency. Put shortly:
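Time-resolved fluorescence kinase assay using 15 ng/mL baculovirus-expressed JAK2 on Neutravidin-captured biotinylated 15-mer peptide substrate, reaction 20 min at room temperature. IC50 from percent inhibition versus log concentration, sigmoidal variable-slope fit.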

Chain of baculovirus-expressed ALK (Q9UM73 19-1620): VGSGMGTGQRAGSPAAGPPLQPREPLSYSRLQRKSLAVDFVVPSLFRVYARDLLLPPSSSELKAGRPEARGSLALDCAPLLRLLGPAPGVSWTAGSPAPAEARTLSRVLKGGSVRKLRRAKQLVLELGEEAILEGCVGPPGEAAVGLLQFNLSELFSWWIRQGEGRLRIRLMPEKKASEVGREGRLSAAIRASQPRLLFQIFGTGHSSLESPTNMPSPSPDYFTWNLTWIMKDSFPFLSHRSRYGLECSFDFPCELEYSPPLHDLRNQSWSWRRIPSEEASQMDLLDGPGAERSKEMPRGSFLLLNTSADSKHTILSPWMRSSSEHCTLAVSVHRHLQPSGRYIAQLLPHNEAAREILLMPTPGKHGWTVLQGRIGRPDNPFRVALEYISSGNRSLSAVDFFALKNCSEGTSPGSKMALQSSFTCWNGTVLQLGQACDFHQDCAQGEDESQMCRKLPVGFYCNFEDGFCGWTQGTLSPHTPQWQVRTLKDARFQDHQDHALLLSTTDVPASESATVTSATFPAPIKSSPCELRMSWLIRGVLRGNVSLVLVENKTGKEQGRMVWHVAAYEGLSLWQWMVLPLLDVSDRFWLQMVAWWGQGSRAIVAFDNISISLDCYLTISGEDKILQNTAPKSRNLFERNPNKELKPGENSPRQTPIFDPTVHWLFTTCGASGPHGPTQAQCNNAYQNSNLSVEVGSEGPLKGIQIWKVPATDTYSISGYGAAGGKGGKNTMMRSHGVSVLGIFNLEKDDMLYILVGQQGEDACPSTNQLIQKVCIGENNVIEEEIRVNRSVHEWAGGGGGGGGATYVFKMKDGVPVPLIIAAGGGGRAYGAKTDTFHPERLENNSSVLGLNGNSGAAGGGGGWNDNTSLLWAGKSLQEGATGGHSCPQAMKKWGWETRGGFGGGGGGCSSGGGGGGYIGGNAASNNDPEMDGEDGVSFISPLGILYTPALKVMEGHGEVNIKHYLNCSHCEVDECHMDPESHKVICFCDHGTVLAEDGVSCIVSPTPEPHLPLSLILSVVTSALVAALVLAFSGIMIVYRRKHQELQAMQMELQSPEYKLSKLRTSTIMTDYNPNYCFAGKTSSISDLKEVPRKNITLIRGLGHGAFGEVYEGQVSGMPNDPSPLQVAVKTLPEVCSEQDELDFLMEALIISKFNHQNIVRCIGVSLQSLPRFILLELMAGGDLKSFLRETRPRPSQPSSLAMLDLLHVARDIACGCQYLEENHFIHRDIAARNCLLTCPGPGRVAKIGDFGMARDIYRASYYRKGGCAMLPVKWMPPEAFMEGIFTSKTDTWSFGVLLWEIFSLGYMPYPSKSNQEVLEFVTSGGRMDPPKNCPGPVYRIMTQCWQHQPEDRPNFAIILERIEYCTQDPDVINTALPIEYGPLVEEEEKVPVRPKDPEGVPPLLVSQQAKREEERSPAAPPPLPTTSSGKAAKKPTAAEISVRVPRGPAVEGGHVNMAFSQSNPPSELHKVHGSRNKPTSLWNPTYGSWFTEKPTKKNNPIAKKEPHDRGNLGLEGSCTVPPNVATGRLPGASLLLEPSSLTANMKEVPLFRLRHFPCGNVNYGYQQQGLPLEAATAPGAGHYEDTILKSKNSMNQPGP
Chain of baculovirus-expressed JAK2 kinase (O60674 whole entry): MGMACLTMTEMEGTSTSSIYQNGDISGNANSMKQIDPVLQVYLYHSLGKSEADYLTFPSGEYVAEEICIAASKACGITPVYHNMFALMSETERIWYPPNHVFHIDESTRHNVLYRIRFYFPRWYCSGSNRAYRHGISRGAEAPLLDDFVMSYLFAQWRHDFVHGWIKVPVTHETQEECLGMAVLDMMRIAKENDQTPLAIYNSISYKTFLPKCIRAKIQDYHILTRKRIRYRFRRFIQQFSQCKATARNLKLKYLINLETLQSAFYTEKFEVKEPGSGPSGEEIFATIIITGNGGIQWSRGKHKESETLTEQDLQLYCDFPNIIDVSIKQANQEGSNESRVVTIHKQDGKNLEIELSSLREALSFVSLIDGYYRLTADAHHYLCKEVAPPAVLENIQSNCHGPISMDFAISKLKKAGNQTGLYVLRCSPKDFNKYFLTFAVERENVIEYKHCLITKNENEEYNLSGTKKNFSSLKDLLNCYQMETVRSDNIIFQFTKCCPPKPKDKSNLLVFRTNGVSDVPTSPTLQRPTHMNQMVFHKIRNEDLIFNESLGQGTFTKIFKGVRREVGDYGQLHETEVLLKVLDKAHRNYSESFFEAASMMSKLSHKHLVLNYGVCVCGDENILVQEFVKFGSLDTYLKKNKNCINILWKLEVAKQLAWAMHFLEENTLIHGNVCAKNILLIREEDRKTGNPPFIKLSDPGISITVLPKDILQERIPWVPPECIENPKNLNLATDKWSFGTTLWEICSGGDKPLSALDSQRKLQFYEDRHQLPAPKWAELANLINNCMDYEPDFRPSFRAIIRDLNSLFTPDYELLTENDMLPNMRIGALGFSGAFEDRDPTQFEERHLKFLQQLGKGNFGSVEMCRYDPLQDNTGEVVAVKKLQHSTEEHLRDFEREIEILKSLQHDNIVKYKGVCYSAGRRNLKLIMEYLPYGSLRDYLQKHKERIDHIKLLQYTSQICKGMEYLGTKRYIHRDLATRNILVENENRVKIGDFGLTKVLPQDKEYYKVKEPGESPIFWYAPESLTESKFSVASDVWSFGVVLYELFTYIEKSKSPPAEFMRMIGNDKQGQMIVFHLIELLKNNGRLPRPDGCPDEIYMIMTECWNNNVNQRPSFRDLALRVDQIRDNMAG

In the case of `COc1cc(CN2CC[C@H](O)C2)ccc1-c1nc2c(N[C@H]3[C@@H](C(N)=O)[C@@H]4C=C[C@H]3C4)c(Cl)cnc2[nH]1` [Compound LV, (1S,2S,3R,4R)-3-{6-Chloro-2-[4-((S)-3-hydroxy-pyrrolidin-1-ylmethyl)-2-methoxyphenyl]-3H-imidazo[4,5-b]pyridine-7-ylamino}-bicyclo[2.2.1]hept-5-ene-2-carboxylic acid amide], the melting point fell in the range of 205 to 208 °C. Besides, the IC50 in series [1] is less than 100 nM. For the same molecule, in series [2], the IC50 was less than 100 nM.

As to `NC(=O)[C@@H]1[C@H](Nc2c(Cl)cnc3[nH]c(-c4ccc5c(c4)CCC4(CCNCC4)O5)nc23)[C@H]2C=C[C@@H]1C2` [Compound CXV, (1S,2S,3R,4R)-3-[(6-chloro-2-spiro[chromane-2,4′-piperidine]-6-yl-3H-imidazo[4,5-b]pyridin-7-yl)amino]bicyclo[2.2.1]hept-5-ene-2-carboxamide], the melting point is more than 250 °C. In addition, the IC50 in series [1] was less than 100 nM. The IC50 in series [2] was less than 100 nM.

Consider `COc1ncccc1-c1nc2c(N[C@H]3[C@@H](C(N)=O)[C@@H]4C=C[C@H]3C4)c(Br)cnc2[nH]1` [Compound CI, (1S,2S,3R,4R)-3-[6-Bromo-2-(2-methoxy-pyridin-3-yl)-3H-imidazo[4,5-b]pyridin-7-ylamino]-bicyclo[2.2.1]hept-5-ene-2-carboxylic acid amide], for which the melting point amounted to 201 °C. For the same molecule, the IC50 in series [1] is less than 100 nM. Further, the IC50 in series [2] is less than 100 nM.

With `NC(=O)[C@@H]1[C@H](Nc2c(Br)cnc3[nH]c(-c4ccc(N5CCOCC5)nc4)nc23)[C@H]2C=C[C@@H]1C2` [Compound CXII, (1S,2S,3R,4R)-3-[6-Bromo-2-(6-morpholin-4-yl-pyridin-3-yl)-3H-imidazo[4,5-b]pyridin-7-ylamino]-bicyclo[2.2.1]hept-5-ene-2-carboxylic acid amide], the melting point is 288 to 290 °C. Further, in series [1], the IC50 is less than 100 nM. The IC50 in series [2] was less than 100 nM.

`NC(=O)[C@@H]1[C@H](Nc2c(Br)cnc3[nH]c(-c4ccc(N5CCOCC5)cc4)nc23)[C@H]2C=C[C@@H]1C2` [Compound LXXIX, (1S,2S,3R,4R)-3-[6-Bromo-2-(4-morpholin-4-yl-phenyl)-3H-imidazo[4,5-b]pyridin-7-ylamino]-bicyclo[2.2.1]hept-5-ene-2-carboxylic acid amide]: the melting point fell in the range of 283 to 284 °C. Further, in series [2], the IC50 was less than 100 nM.

With `CN1CCN(c2ccc(-c3nc4c(N[C@H]5[C@@H](C(N)=O)[C@@H]6C=C[C@H]5C6)c(Br)cnc4[nH]3)cc2)CC1` [Compound LXXVIII, (1S,2S,3R,4R)-3-{6-Bromo-2-[4-(4-methyl-piperazin-1-yl)-phenyl]-3H-imidazo[4,5-b]pyridin-7-ylamino}-bicyclo[2.2.1]hept-5-ene-2-carboxylic acid amide], the melting point was 215 to 218 °C. For the same molecule, the IC50 in series [2] is less than 100 nM.

`NC(=O)[C@@H]1[C@H](Nc2c(Br)cnc3[nH]c(-c4ccc(CN5CCOCC5)cc4)nc23)[C@H]2C=C[C@@H]1C2` (as salt: sodium) [Compound LXXX, (1S,2S,3R,4R)-3-[6-Bromo-2-(4-morpholin-4-ylmethyl-phenyl)-3H-imidazo[4,5-b]pyridin-7-ylamino]-bicyclo[2.2.1]hept-5-ene-2-carboxylic acid amide] displayed a melting point of 217 to 219 °C.

In the case of `N#Cc1cccc(-c2nc3c(N[C@H]4[C@@H](C(N)=O)[C@@H]5C=C[C@H]4C5)c(Br)cnc3[nH]2)c1` [Compound CXLVI, (1S,2S,3R,4R)-3-[6-Bromo-2-(3-cyano-phenyl)-3H-imidazo[4,5-b]pyridin-7-ylamino]-bicyclo[2.2.1]hept-5-ene-2-carboxylic acid amide], the IC50 is 100 to 1000 nM in series [1] and less than 100 nM in series [2].

As for `NC(=O)[C@@H]1[C@H](Nc2c(Cl)cnc3[nH]c(C4CCCNC4)nc23)[C@H]2C=C[C@@H]1C2` (single isomer, unassigned) [XIV], the IC50 in series [1] (1 μM ATP (Km level)) and in series [2] was more than 10000 nM throughout.

Consider `CC(C)NC(=O)[C@@H]1[C@H](Nc2c(Cl)cnc3[nH]c(-c4cnn(C)c4)nc23)[C@H]2C=C[C@@H]1C2` [Compound CLXXXVII], for which the IC50 in series [1] and in series [2] was 100 to 1000 nM throughout.

Consider `NC(=O)[C@@H]1[C@H](Nc2c(Cl)cnc3[nH]c(Nc4ccccc4)nc23)[C@H]2C=C[C@@H]1C2` [Compound LXVII, (1S,2S,3R,4R)-3-(6-Chloro-2-phenylamino-3H-imidazo[4,5-b]pyridine-7-ylamino)-bicyclo[2.2.1]hept-5-ene-2-carboxylic acid amide], for which the IC50 in series [1] was 100 to 1000 nM; in series [2], less than 100 nM.

On to `COc1cc(C2CCN(C[C@H](C)O)CC2)ccc1-c1nc2c(N[C@H]3[C@@H](C(N)=O)[C@@H]4C=C[C@H]3C4)c(Cl)cnc2[nH]1` [Compound XLV, (1S,2S,3R,4R)-3-(6-Chloro-2-{4-[1-((S)-2-hydroxypropyl)-piperidin-4-yl]-2-methoxyphenyl}-3H-imidazo[4,5-b]pyridine-7-ylamino)-bicyclo[2.2.1]hept-5-ene-2-carboxylic acid amide], for which the IC50 in series [1] and in series [2] was less than 100 nM in each case.

As to `NC(=O)[C@@H]1[C@H](Nc2c(Br)cnc3[nH]c(-c4ccccc4F)nc23)[C@H]2C=C[C@@H]1C2` [Compound CXXXI, (1S,2S,3R,4R)-3-[6-Bromo-2-(2-fluoro-phenyl)-3H-imidazo[4,5-b]pyridin-7-ylamino]-bicyclo[2.2.1]hept-5-ene-2-carboxylic acid amide], the IC50 in series [1] and in series [2] was less than 100 nM in each case.

For `NC(=O)[C@@H]1[C@H](Nc2c(Cl)cnc3[nH]c(-c4ccccc4F)nc23)[C@H]2C=C[C@@H]1C2` [Compound CXXVII, (1S,2S,3R,4R)-3-[6-Chloro-2-(2-fluoro-phenyl)-3H-imidazo[4,5-b]pyridin-7-ylamino]-bicyclo[2.2.1]hept-5-ene-2-carboxylic acid amide], the IC50 is 100 to 1000 nM in series [1] and less than 100 nM in series [2].

In the case of `NC(=O)[C@@H]1[C@H](Nc2c(Cl)cnc3[nH]c(-c4cccc(C(=O)NCC(=O)O)c4)nc23)[C@H]2C=C[C@@H]1C2` [Compound CCXXVII, 2-(3-(7-((1R,2R,3S,4S)-3-carbamoylbicyclo[2.2.1]hept-5-en-2-ylamino)-6-chloro-3H-imidazo[4,5-b]213yridine-2-yl)benzamido)acetic acid], the values for the IC50 in series [1] and in series [2] were 1000 to 10000 nM and less than 100 nM, respectively.

Regarding `O=C(NC1CC1)[C@@H]1[C@H](Nc2c(Cl)cnc3[nH]c(-c4sc(N5CC[C@@H](O)C5)nc4Cl)nc23)[C@H]2C=C[C@@H]1C2` [Compound CLXXIII, (1S,2S,3R,4R)-3-[6-Chloro-2-[4-chloro-2-((R)-3-hydroxy-pyrrolidin-1-yl)-thiazol-5-yl]-3H-imidazo[4,5-b]pyridin-7-ylamino]-bicyclo[2.2.1]hept-5-ene-2-carboxylic acid cyclopropylamide], the IC50 is less than 100 nM in series [1] and 100 to 1000 nM in series [2].

`CN(C)CCNC(=O)c1ccc(-c2nc3c(N[C@H]4[C@@H](C(N)=O)[C@@H]5C=C[C@H]4C5)c(Cl)cnc3[nH]2)cc1` [Compound CCXXXII, (1S,2S,3R,4R)-3-{6-Chloro-2-[4-(2-dimethylamino-ethylcarbamoyl)-phenyl]-3H-imidazo[4,5-b]pyridine-7-ylamino}-bicyclo[2.2.1]hept-5-ene-2-carboxylic acid amide]: the IC50 in series [1] and in series [2] was less than 100 nM in each case.

For the molecule `NC(=O)[C@@H]1[C@H](Nc2c(Cl)cnc3[nH]c(-c4ccc(F)cc4)nc23)[C@H]2C=C[C@@H]1C2` [Compound CXXIX, (1S,2S,3R,4R)-3-[6-Chloro-2-(4-fluoro-phenyl)-3H-imidazo[4,5-b]pyridin-7-ylamino]-bicyclo[2.2.1]hept-5-ene-2-carboxylic acid amide], the values for the IC50 in series [1] and in series [2] were 100 to 1000 nM and less than 100 nM, respectively.

On to `NC(=O)[C@@H]1[C@H](Nc2c(Br)cnc3[nH]c(-c4sc(N5CC[C@@H](O)C5)nc4Cl)nc23)[C@H]2C=C[C@@H]1C2` [Compound CLXXI, (1S,2S,3R,4R)-3-{6-Bromo-2-[4-chloro-2-((R)-3-hydroxy-pyrrolidin-1-yl)-thiazol-5-yl]-3H-imidazo[4,5-b]pyridin-7-ylamino}-bicyclo[2.2.1]hept-5-ene-2-carboxylic acid amide], for which the IC50 in series [1] and in series [2] was less than 100 nM in each case.

As for `CN(C)CCOc1ccc(-c2nc3c(N[C@H]4[C@@H](C(=O)N(C)C)[C@@H]5C=C[C@H]4C5)c(Cl)cnc3[nH]2)cc1` [Compound CLXXVII, (1S,2S,3R,4R)-3-[6-Chloro-2-[4-(2-dimethylamino-ethoxy)-phenyl]-3H-imidazo[4,5-b]pyridin-7-ylamino]-bicyclo[2.2.1]hept-5-ene-2-carboxylic acid dimethylamide], the IC50 was 100 to 1000 nM in series [1] and less than 100 nM in series [2].

`COc1cc(N2CCN(C)CC2)ccc1-c1nc2c(N[C@H]3[C@@H](C(=O)N(C)C)[C@@H]4C=C[C@H]3C4)c(Cl)cnc2[nH]1` [Compound CXCVII, (1S,2S,3R,4R)-3-(6-chloro-2-(2-methoxy-4-(4-methylpiperazin-1-yl)phenyl)-3H-imidazo[4,5-b]pyridin-7-ylamino)-N,N-dimethylbicyclo[2.2.1]hept-5-ene-2-carboxamide]: the IC50 is less than 100 nM in series [1] and 100 to 1000 nM in series [2].

Regarding `Cc1nn(C)c(C)c1-c1nc2c(N[C@H]3[C@@H](C(N)=O)[C@@H]4C=C[C@H]3C4)c(Br)cnc2[nH]1` [Compound CLII, (1S,2S,3R,4R)-3-[6-Bromo-2-(1,3,5-trimethyl-1H-pyrazol-4-yl)-3H-imidazo[4,5-b]pyridin-7-ylamino]-bicyclo[2.2.1]hept-5-ene-2-carboxylic acid amide], the IC50 in series [1] and in series [2] was less than 100 nM each time.
